Assay results from PMC10534724, “Interaction of ALK Inhibitors with Polyspecific Organic Cation Transporters and the Impact of Substrate-Dependent Inhibition on the Prediction of Drug–Drug Interactions” (Pharmaceutics, 2023).
Read-outs that look alike come from different tables or passages of the source.

Legend:
Format in all cases: in vitro ADME
hMATE2-K = molecular target: T1, hMATE2-K (Homo sapiens, UniProt Q86VL8); assay: Inhibition of hMATE2-K-mediated substrate uptake in transfected HEK293 cells (pH 8.0); details: for IC50: HEK293, 2 min, 37 °C, mean ± SD; for In vivo DDI study recommendation, hMATE2-K: FDA-recommended criteria
T1 construct: expressed in transfected cells

hOCT1 = molecular target: T2, hOCT1 (Homo sapiens, UniProt O15245); assay: Inhibition of hOCT1-mediated substrate uptake in transfected HEK293 cells; details: for In vivo DDI study recommendation, hOCT1: FDA-recommended criteria
T2 construct: expressed in transfected cells
T2 sequence (O15245 1-554): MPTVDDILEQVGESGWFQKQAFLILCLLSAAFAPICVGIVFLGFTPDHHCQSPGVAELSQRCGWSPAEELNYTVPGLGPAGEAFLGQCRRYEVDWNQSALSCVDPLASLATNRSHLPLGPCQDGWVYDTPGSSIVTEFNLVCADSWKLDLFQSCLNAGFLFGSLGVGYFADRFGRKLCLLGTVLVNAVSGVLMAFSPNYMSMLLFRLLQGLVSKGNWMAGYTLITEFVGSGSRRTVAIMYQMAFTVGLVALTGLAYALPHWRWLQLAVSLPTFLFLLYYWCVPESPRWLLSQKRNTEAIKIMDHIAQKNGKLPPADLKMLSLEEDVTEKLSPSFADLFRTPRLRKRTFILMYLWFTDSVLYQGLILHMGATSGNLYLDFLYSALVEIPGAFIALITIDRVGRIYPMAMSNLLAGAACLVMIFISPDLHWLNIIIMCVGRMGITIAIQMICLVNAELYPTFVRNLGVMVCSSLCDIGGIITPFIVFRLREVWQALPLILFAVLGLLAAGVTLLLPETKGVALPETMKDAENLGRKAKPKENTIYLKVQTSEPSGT

hMATE1 = molecular target: T3, hMATE1 (Homo sapiens, UniProt Q96FL8); assay: Inhibition of hMATE1-mediated substrate uptake in transfected HEK293 cells (pH 8.0); details: for In vivo DDI study recommendation, hMATE1: FDA-recommended criteria
T3 construct: expressed in transfected cells
T3 sequence (Q96FL8 1-570): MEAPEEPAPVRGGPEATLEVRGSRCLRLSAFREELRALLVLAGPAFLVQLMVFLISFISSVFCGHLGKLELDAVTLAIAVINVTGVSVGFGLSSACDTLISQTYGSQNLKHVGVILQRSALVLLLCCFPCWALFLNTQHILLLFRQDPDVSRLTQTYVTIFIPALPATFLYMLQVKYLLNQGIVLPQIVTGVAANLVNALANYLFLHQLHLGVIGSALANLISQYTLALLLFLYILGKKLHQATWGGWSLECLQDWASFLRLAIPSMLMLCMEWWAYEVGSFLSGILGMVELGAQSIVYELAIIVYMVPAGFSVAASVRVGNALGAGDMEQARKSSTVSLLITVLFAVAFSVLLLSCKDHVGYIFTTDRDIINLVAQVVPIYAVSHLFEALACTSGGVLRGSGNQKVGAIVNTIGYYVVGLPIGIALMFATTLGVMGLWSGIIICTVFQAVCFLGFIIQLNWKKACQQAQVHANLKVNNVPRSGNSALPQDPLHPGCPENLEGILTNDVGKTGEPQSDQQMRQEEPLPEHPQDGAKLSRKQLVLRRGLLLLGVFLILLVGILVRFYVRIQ

hOCT2 = molecular target: T4, hOCT2 (Homo sapiens, UniProt O15244); assay: Inhibition of hOCT2-mediated substrate uptake in transfected HEK293 cells; design: expressed in transfected cells; details: for In vivo DDI study recommendation, hOCT2: FDA-recommended criteria
T4 sequence (O15244 1-555): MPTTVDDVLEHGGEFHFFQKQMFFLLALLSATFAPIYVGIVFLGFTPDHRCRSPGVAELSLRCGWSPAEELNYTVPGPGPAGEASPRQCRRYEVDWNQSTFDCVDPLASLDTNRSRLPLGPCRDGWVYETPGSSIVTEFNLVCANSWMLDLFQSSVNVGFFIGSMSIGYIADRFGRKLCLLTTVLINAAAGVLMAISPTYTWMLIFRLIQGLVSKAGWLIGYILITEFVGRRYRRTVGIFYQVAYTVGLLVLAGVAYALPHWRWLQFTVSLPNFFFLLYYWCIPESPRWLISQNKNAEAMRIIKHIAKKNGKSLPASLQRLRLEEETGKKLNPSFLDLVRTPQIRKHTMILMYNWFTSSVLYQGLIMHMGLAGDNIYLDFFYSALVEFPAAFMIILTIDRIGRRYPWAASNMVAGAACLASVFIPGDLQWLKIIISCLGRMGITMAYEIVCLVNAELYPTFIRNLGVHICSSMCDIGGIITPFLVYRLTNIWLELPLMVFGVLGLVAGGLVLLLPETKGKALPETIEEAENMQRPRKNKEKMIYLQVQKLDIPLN

hOCT3 = molecular target: T5, hOCT3 (Homo sapiens, UniProt O75751); assay: Inhibition of hOCT3-mediated substrate uptake in transfected HEK293 cells; details: for In vivo DDI study recommendation, hOCT3: FDA-recommended criteria
T5 construct: expressed in transfected cells
T5 sequence (O75751 1-556): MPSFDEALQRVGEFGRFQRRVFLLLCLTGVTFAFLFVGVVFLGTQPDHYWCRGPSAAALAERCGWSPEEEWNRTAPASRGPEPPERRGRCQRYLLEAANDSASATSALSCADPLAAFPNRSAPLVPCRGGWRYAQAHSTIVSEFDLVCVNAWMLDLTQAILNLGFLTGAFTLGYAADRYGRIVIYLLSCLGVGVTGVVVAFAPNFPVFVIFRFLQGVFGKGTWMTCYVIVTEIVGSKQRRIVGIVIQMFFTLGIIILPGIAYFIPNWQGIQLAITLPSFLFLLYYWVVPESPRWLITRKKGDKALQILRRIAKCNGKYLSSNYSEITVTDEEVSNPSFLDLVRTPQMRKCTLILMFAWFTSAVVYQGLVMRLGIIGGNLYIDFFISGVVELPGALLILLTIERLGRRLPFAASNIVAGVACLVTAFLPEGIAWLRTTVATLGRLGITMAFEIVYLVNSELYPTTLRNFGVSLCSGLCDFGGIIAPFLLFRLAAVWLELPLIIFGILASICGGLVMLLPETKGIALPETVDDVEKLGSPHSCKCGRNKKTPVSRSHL

[1] = HEK293, 20 µM inhibitor, 1 µM mIBG, 2 min, 37 °C

T1 sequence (Q86VL8 1-566 isoform Q86VL8-3): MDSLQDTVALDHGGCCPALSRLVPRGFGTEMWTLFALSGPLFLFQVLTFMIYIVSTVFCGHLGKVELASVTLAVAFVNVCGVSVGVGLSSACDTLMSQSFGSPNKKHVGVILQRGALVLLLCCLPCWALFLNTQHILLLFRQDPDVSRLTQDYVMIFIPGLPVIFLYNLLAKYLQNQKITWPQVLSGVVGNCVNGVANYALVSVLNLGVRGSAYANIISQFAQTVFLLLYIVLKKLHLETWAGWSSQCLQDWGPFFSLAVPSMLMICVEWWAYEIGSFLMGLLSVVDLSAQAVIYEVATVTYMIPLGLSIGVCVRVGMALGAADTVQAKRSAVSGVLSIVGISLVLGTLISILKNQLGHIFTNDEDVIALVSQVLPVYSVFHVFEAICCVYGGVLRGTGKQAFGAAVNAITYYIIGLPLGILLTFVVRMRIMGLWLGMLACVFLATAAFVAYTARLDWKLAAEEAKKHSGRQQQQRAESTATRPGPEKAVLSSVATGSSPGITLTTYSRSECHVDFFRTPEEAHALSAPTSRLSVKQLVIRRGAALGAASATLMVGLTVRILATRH

COc1cc(N2CCC(N3CCN(C)CC3)CC2)ccc1Nc1ncc(Cl)c(Nc2ccccc2P(C)(C)=O)n1 [Brigatinib]
substrate dependency, hMATE2-K: more potent with metformin than with mIBG (hMATE2-K; IC50 ratio mIBG/metformin): approximately 4 fold | IC50 (hMATE2-K; substrate 1 µM [3H]MPP+, read-out: IC50, hMATE2-K-mediated MPP+ uptake): > 300 µM | IC50 (hMATE2-K; substrate 8.9 µM [14C]metformin, read-out: IC50, hMATE2-K-mediated metformin uptake): 38.3 ± 1.7 µM | In vivo DDI study recommendation, hMATE2-K (hMATE2-K; substrate MPP+): No | In vivo DDI study recommendation, hMATE2-K (hMATE2-K; substrate mIBG): No | In vivo DDI study recommendation, hMATE2-K (hMATE2-K; substrate metformin): No | IC50 (hOCT1): 1.12 ± 0.04 µM | inhibition at 20 µM (hOCT1; [1]): > 50% | substrate dependency, hOCT1: more potent with metformin than with MPP+ (hOCT1; IC50 ratio MPP+/metformin): ~22 fold | substrate dependency, hOCT1: more potent with metformin than with mIBG (hOCT1; IC50 ratio mIBG/metformin): approximately 15 fold | IC50 (hOCT1; substrate 1 µM [3H]MPP+, HEK293, 2 min, 37 °C, mean ± SD, read-out: IC50, hOCT1-mediated MPP+ uptake): 25.1 ± 1.2 µM | IC50 (hOCT1; substrate 1 µM mIBG, HEK293, 2 min, 37 °C, mean ± SD, read-out: IC50, hOCT1-mediated mIBG uptake): 17.1 ± 0.6 µM | In vivo DDI study recommendation, hOCT1 (hOCT1; substrate MPP+): No | In vivo DDI study recommendation, hOCT1 (hOCT1; substrate mIBG): No | In vivo DDI study recommendation, hOCT1 (hOCT1; substrate metformin): Yes | inhibition at 20 µM (hMATE1; [1]): > 80% | IC50 (hMATE1; IC50, hMATE1-mediated MPP+ uptake, substrate 1 µM [3H]MPP+, HEK293, 2 min, 37 °C, mean ± SD): 2030 ± 240 nM | IC50 (hMATE1; IC50, hMATE1-mediated [14C]metformin uptake, Coincubation, coincubation (no preincubation), preincubation study, 8.9 µM [14C]metformin, 2 min uptake): 1410 ± 60 nM | IC50 (hMATE1; IC50, hMATE1-mediated [14C]metformin uptake, Preincubation, 30-min preincubation with inhibitor at 37 °C, 8.9 µM [14C]metformin, 2 min uptake): 970 ± 90 nM | IC50 (hMATE1; IC50, hMATE1-mediated mIBG uptake, substrate 1 µM mIBG, HEK293, 2 min, 37 °C, mean ± SD): 1930 ± 150 nM | IC50 (hMATE1; IC50, hMATE1-mediated metformin uptake, substrate 8.9 µM [14C]metformin, HEK293, 2 min, 37 °C, mean ± SD): 1670 ± 140 nM | substrate dependency, hMATE1: differences in IC50 values across substrates (hMATE1; metformin, mIBG, MPP+): below two-fold | In vivo DDI study recommendation, hMATE1 (hMATE1; substrate MPP+): Yes | In vivo DDI study recommendation, hMATE1 (hMATE1; substrate mIBG): Yes | In vivo DDI study recommendation, hMATE1 (hMATE1; substrate metformin): Yes | IC50 (hOCT2; 30-min preincubation with inhibitor at 37 °C, 8.9 µM [14C]metformin, 2 min uptake, read-out: IC50, hOCT2-mediated [14C]metformin uptake, Preincubation): 15.5 ± 0.5 µM | IC50 (hOCT2; coincubation (no preincubation), preincubation study, 8.9 µM [14C]metformin, 2 min uptake, read-out: IC50, hOCT2-mediated [14C]metformin uptake, Coincubation): 36 ± 1.1 µM | IC50 (hOCT2; substrate 1 µM [3H]MPP+, HEK293, 2 min, 37 °C, mean ± SD, read-out: IC50, hOCT2-mediated MPP+ uptake): > 300 µM | IC50 (hOCT2; substrate 1 µM mIBG, HEK293, 2 min, 37 °C, mean ± SD, read-out: IC50, hOCT2-mediated mIBG uptake): > 100 µM | IC50 (hOCT2; substrate 8.9 µM [14C]metformin, HEK293, 2 min, 37 °C, mean ± SD, read-out: IC50, hOCT2-mediated metformin uptake): 30.2 ± 1.5 µM | In vivo DDI study recommendation, hOCT2 (hOCT2; substrate MPP+): No | In vivo DDI study recommendation, hOCT2 (hOCT2; substrate mIBG): No | In vivo DDI study recommendation, hOCT2 (hOCT2; substrate metformin): No | inhibition of hOCT2 (in words) (hOCT2; substrates metformin, mIBG, MPP+): not a strong inhibitor | IC50 (hOCT3): 850 ± 70 nM | inhibition at 20 µM (hOCT3; HEK293, read-out: inhibition of mIBG uptake by hOCT3): > 80% | substrate dependency, hOCT3: differences in IC50 values across substrates (hOCT3; metformin, mIBG, MPP+): up to 3 fold | IC50 (hOCT3; substrate 1 µM [3H]MPP+, HEK293, 2 min, 37 °C, mean ± SD, read-out: IC50, hOCT3-mediated MPP+ uptake): 2540 ± 140 nM | IC50 (hOCT3; substrate 1 µM mIBG, HEK293, 2 min, 37 °C, mean ± SD, read-out: IC50, hOCT3-mediated mIBG uptake): 1200 ± 30 nM | In vivo DDI study recommendation, hOCT3 (hOCT3; substrate MPP+): Yes | In vivo DDI study recommendation, hOCT3 (hOCT3; substrate mIBG): Yes | In vivo DDI study recommendation, hOCT3 (hOCT3; substrate metformin): Yes
